# In US6969730B2, “Amines as histamine-3 receptor ligands and their therapeutic applications” (Abbott Laboratories, priority 2001, dated 2005):
# Counter-ions that a name gives are not always drawn.
# Biological target: T1, histamine-3 receptors (H3 receptor) (Rattus norvegicus, UniProt Q9QYN8)
# T1 construct: from tissue; host or cells: male Sprague-Dawley rat brain cortex membranes
# Assay: (3H)-N-α-methylhistamine binding to rat cortical membranes (histamine-3 receptor ligands)
# Settings: male Sprague-Dawley rat brain cortical membranes; (3H)-N-α-methylhistamine ~0.6 nM; 30 minutes at 25° C.; Cheng-Prusoff
# T1 sequence (Q9QYN8 whole entry): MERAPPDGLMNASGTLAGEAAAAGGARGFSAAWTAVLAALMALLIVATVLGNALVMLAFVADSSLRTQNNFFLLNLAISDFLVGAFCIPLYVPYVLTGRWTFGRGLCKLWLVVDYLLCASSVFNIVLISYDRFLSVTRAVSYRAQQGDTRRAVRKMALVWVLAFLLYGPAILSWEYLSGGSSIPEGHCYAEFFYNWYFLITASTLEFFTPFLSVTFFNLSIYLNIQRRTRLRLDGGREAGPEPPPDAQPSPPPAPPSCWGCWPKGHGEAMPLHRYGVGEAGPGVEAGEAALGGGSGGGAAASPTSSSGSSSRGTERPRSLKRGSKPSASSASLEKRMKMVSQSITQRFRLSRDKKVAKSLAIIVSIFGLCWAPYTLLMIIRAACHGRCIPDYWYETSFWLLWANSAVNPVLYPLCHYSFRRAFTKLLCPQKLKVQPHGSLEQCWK
row,Ki,Compound
1,8.4 nM,"C[C@@H]1CCCN1CCc1oc2ccc(-c3ccc(C#N)cc3)cc2c1I [Example 157, 4-(3-iodo-2-{2-[(2R)-2-methyl-1-pyrrolidinyl]ethyl}-1-benzofuran-5-yl)benzonitrile]"
2,> 1000 nM,"C[C@@H]1CCC(=O)N1CCc1cc2cc(-c3ccc(C#N)cc3)ccc2o1 [Example 158, 4-(2-{2-[(2R)-2-methyl-5-oxo-1-pyrrolidinyl]ethyl}-1-benzofuran-5-yl)benzonitrile]"
3,14 nM,"CC(=O)c1c(CCN2CCC[C@H]2C)oc2ccc(-c3ccc(C#N)cc3)cc12 [Example 159, 4-(3-acetyl-2-{2-[(2R)-2-methyl-1-pyrrolidinyl]ethyl}-1-benzofuran-5-yl)benzonitrile]"
4,51 nM,(2R)-1-{2-[5-(4-methoxyphenyl)-1-benzofuran-2-yl]ethyl}-2-methylpyrrolidine [Example 121]

# Continued, compound first:
row,Compound,Ki
1,"C[C@@H]1CCCN1CCc1cc2cc(-c3ccc(C(=O)C4CC4)cc3)ccc2o1 [Example 160, cyclopropyl[4-(2-{2-[(2R)-2-methyl-1-pyrrolidinyl]ethyl}-1-benzofuran-5-yl)phenyl]methanone]",7.6 nM
2,"Cc1noc(C)c1-c1ccc2oc(CCN3CCC[C@H]3C)cc2c1 [Example 161, 3,5-dimethyl-4-(2-{2-[(2R)-2-methyl-1-pyrrolidinyl]ethyl}-1-benzofuran-5-yl)isoxazole]",1.6 nM
3,"N#Cc1ccc(-c2ccc3oc(CCN)cc3c2)cc1 [Example 162, 4-[2-(2-aminoethyl)-1-benzofuran-5-yl]benzonitrile]",581 nM
4,"CC[C@@H]1CCCN1CCc1cc2cc(-c3ccc(C#N)cc3)ccc2o1 [Example 163, 4-(2-{2-[(2R)-2-ethyl-1-pyrrolidinyl]ethyl}-1-benzofuran-5-yl)benzonitrile]",3.7 nM
5,"N#Cc1ccc(-c2ccc3oc(CCN4CCC[C@H]4CF)cc3c2)cc1 [Example 164, 4-(2-{2-[(2S)-2-(fluoromethyl)-1-pyrrolidinyl]ethyl}-1-benzofuran-5-yl)benzonitrile]",24 nM
6,"C[C@@H]1CCCN1CCc1cc2cc(-c3ccc(C#N)cc3)ccc2s1 [Example 165, 4-(2-{2-[(2R)-2-methyl-1-pyrrolidinyl]ethyl}-1-benzothien-5-yl)benzonitrile]",16.8 nM
7,(2S)-1-(2-{5-[5-(4-morpholinylcarbonyl)-2-pyridinyl]-1-benzofuran-2-yl}ethyl)-2-pyrrolidinol [Example 62],112 nM

# Tested on: not given
# Assay: not given
# Settings: not given
row,melting point,Compound
1,147 °C,"CC[C@@H]1CCCN1CCc1cc2cc(-c3ccc(C#N)cc3)ccc2o1 (as salt: tartrate) [Example 163, 4-(2-{2-[(2R)-2-ethyl-1-pyrrolidinyl]ethyl}-1-benzofuran-5-yl)benzonitrile]"
2,156.3 °C,"N#Cc1ccc(-c2ccc3oc(CCN4CCC[C@H]4CF)cc3c2)cc1 (as salt: tartrate) [Example 164, 4-(2-{2-[(2S)-2-(fluoromethyl)-1-pyrrolidinyl]ethyl}-1-benzofuran-5-yl)benzonitrile]"
3,118 to 120 °C,"N#Cc1ccc(-c2ccc3oc(CCN)cc3c2)cc1 [Example 162, 4-[2-(2-aminoethyl)-1-benzofuran-5-yl]benzonitrile]"
